The compounds below were run against Fatty acid synthase (Homo sapiens, UniProt P49327) (assay: Inhibition of human FAS).
Sequence of Fatty acid synthase (Homo sapiens, UniProt P49327) (P49327 whole entry): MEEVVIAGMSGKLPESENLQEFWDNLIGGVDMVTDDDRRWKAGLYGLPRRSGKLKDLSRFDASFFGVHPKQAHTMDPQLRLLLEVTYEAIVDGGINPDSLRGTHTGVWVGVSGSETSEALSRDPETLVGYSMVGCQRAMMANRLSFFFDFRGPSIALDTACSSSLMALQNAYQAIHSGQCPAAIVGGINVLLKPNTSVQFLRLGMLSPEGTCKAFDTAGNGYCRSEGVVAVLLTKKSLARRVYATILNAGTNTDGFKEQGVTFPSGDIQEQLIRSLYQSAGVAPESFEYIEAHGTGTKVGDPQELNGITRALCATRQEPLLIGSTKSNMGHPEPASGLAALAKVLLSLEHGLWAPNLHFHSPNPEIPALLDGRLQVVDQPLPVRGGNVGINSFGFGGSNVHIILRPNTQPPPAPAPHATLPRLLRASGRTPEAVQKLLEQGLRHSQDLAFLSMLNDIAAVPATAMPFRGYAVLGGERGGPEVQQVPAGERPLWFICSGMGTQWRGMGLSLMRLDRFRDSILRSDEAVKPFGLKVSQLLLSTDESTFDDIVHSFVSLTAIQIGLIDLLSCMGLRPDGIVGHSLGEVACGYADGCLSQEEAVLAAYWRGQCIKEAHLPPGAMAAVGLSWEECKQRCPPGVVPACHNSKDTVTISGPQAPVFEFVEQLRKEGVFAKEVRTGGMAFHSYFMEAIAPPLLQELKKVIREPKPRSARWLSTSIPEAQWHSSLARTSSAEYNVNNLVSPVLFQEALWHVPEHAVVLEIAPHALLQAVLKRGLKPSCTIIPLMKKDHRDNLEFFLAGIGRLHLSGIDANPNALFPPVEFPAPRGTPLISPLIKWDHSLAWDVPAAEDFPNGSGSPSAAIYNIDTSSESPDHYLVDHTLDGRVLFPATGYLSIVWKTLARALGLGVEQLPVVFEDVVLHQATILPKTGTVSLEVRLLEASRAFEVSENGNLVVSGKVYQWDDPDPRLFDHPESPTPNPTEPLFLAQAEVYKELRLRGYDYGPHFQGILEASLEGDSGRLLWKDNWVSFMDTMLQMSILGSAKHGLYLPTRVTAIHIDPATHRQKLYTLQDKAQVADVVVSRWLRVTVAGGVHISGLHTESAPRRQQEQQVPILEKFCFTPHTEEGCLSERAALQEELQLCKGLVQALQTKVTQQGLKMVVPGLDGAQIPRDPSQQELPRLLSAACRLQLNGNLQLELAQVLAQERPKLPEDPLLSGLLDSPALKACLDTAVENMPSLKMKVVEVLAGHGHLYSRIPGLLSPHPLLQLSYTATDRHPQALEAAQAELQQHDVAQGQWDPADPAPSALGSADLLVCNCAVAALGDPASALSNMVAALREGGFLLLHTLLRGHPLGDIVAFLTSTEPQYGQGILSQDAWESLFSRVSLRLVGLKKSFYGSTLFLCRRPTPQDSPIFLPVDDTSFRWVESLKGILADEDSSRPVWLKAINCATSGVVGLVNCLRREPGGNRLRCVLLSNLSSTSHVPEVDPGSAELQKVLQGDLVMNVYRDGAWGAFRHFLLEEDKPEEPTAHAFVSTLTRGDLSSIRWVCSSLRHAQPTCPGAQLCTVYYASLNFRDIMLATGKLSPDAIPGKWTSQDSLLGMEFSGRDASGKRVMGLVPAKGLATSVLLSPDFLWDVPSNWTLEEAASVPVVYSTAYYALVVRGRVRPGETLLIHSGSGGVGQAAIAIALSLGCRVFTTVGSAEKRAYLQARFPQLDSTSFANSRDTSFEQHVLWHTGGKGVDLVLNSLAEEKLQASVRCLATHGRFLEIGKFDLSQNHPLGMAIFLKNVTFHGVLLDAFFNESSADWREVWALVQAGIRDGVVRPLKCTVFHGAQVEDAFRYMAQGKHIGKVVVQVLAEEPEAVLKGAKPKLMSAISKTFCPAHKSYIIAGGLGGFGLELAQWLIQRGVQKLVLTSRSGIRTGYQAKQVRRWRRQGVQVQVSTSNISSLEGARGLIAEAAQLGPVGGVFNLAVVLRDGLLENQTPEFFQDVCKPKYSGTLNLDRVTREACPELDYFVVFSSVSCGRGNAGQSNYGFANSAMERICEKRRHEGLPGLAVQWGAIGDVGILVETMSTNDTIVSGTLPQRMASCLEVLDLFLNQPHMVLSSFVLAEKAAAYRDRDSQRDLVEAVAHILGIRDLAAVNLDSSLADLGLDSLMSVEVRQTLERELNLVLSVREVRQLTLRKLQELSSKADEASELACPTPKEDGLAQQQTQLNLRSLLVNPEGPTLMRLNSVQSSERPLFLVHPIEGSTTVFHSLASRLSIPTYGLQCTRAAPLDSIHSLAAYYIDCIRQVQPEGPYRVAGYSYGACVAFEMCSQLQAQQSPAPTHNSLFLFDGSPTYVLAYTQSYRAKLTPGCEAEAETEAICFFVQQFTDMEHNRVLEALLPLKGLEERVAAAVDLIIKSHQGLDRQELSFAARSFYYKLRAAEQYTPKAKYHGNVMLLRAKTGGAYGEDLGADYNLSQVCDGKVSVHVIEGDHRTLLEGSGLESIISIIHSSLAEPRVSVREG

| SMILES | IC50 [nM] |
| --- | --- |
| CS(=O)(=O)c1ccc2[nH]c(=O)c(-c3ccccc3)c(O)c2c1 | > 15000 |
| O=c1[nH]c2ccc(S(=O)(=O)C(F)(F)F)cc2c(O)c1-c1ccccc1 | > 15000 |
| N#Cc1cc(Cl)c2[nH]c(=O)c(-c3ccccc3)c(O)c2c1 | 402 |
| O=c1[nH]c2ccc(C(F)(F)F)cc2c(O)c1-c1ccccc1 | > 15000 |
| COc1ccc(CNc2c(-c3ccccc3)c(=O)[nH]c3cc(Cl)c(C#N)cc23)cc1 | > 15000 |
| N#Cc1cc2c(C#N)c(-c3ccccc3)c(=O)[nH]c2cc1Cl | > 15000 |
| N#Cc1ccc2[nH]c(=O)c(-c3ccccc3)c(O)c2c1 | 1290 |
| N#Cc1cc2c(O)c(-c3ccccc3)c(=O)[nH]c2cc1Cl | 136 |
| N#Cc1cc2c(O)c(-c3cccc(-c4ccc(F)c(F)c4)c3)c(=O)[nH]c2cc1Cl | 68 |
| COc1ccccc1-c1cccc(-c2c(O)c3cc(C#N)c(Cl)cc3[nH]c2=O)c1 | 19 |
| Cn1cc(-c2cccc(-c3c(O)c4cc(C#N)c(Cl)cc4[nH]c3=O)c2)cn1 | 734 |
| N#Cc1cc2c(O)c(-c3cccc(-c4ccc(F)cc4)c3)c(=O)[nH]c2cc1Cl | 54 |
| N#Cc1cc2c(NCc3ccccc3)c(-c3ccccc3)c(=O)[nH]c2cc1Cl | > 15000 |
| N#Cc1cc2c(Cl)c(-c3ccccc3)c(=O)[nH]c2cc1Cl | > 15000 |
| CS(=O)(=O)c1cccc(-c2c(O)c3cc(C#N)c(Cl)cc3[nH]c2=O)c1 | 4160 |
| N#Cc1cc2c(O)c(-c3cccc(-c4cc(F)cc(F)c4)c3)c(=O)[nH]c2cc1Cl | 728 |
| N#Cc1cc2c(O)c(-c3cccc(-c4ccccc4)c3)c(=O)[nH]c2cc1Cl | 52 |
| N#Cc1cc2c(O)c(-c3cccc(-c4cccnc4)c3)c(=O)[nH]c2cc1Cl | 194 |
| N#Cc1cc2c(O)c(-c3cccc(-c4csc5ccccc45)c3)c(=O)[nH]c2cc1Cl | 101 |
| O=c1[nH]c2cc(Cl)c([N+](=O)[O-])cc2c(O)c1-c1ccccc1 | 207 |
| N#Cc1cc2c(O)c(-c3cccc(-c4ccc5ccccc5c4)c3)c(=O)[nH]c2cc1Cl | 127 |
| N#Cc1cc2c(N)c(-c3ccccc3)c(O)nc2cc1Cl | > 15000 |
| O=c1[nH]c2ccc([N+](=O)[O-])cc2c(O)c1-c1ccccc1 | 1400 |
| N#Cc1cc2c(Br)c(-c3ccccc3)c(O)nc2cc1Cl | > 15000 |

Each compound was assayed against Fatty acid synthase (Rattus norvegicus, UniProt P12785) (assay: Inhibition of rat FAS).
Sequence of Fatty acid synthase (Rattus norvegicus, UniProt P12785) (P12785 whole entry): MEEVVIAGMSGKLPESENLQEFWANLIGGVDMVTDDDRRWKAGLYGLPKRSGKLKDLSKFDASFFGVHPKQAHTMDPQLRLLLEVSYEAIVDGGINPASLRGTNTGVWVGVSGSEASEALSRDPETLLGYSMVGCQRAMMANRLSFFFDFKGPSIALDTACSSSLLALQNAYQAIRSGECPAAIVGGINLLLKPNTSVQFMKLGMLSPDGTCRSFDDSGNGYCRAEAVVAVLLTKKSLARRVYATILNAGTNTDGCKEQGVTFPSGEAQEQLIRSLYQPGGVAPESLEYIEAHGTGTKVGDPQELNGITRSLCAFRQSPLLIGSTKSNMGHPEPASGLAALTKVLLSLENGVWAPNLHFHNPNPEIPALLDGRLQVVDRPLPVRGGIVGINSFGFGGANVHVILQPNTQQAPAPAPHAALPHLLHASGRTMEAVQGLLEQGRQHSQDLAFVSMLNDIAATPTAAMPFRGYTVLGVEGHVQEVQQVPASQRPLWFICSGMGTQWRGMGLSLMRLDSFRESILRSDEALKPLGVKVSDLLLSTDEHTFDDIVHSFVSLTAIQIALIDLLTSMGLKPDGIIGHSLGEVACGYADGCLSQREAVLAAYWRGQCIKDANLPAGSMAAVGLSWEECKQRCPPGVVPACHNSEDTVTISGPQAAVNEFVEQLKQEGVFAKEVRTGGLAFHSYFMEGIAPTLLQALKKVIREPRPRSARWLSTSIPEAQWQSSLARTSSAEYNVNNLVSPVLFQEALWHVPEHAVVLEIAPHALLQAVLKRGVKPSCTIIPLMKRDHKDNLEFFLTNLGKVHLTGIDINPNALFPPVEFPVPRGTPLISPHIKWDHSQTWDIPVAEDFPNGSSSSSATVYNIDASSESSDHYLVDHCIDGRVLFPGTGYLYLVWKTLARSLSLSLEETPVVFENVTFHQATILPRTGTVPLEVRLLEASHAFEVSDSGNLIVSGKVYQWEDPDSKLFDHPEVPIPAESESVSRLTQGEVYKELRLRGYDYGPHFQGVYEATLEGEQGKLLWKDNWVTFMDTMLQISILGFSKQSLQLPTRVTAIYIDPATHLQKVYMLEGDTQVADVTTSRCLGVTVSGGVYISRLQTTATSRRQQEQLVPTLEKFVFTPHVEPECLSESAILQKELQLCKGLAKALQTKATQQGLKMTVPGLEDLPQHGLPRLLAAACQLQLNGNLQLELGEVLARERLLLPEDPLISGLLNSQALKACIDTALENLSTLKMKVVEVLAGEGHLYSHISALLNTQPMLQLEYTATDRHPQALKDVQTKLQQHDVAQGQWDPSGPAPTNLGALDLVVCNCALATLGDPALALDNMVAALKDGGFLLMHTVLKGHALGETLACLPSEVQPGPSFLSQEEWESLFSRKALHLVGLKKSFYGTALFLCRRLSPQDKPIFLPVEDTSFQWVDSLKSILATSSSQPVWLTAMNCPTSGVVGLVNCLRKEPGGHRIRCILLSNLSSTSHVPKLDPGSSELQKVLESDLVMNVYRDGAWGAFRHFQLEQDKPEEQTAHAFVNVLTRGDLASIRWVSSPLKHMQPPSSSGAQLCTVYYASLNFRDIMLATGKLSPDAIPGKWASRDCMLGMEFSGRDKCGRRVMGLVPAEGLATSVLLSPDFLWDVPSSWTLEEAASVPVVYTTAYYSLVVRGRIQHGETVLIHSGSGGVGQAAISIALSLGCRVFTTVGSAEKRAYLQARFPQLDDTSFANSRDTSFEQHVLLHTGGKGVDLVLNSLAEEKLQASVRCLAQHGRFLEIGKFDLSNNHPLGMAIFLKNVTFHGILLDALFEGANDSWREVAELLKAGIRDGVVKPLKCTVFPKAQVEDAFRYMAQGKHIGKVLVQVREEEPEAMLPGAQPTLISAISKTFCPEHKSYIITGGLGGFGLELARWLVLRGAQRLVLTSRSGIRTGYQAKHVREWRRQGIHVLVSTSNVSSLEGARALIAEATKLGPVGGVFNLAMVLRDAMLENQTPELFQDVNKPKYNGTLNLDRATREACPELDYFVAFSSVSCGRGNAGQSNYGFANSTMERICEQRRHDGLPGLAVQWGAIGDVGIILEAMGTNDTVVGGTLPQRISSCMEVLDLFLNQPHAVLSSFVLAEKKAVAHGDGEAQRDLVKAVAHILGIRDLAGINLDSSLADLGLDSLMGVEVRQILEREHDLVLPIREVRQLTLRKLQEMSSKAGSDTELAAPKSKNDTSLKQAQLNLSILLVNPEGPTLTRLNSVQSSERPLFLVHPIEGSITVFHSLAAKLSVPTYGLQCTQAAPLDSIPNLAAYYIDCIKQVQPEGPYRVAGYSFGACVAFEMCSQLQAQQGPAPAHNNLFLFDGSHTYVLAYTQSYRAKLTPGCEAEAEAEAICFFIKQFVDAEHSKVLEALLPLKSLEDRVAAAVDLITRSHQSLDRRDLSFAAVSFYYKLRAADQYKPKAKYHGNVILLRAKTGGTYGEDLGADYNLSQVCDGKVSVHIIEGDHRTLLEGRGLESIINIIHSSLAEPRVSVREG

| SMILES | IC50 [nM] |
| --- | --- |
| CS(=O)(=O)c1ccc2[nH]c(=O)c(-c3ccccc3)c(O)c2c1 | > 15000 |
| O=c1[nH]c2ccc(S(=O)(=O)C(F)(F)F)cc2c(O)c1-c1ccccc1 | > 15000 |
| O=C(O)c1ccc2[nH]c(=O)c(-c3ccccc3)c(O)c2c1 | > 15000 |
| O=c1[nH]c2ccc(C(F)(F)F)cc2c(O)c1-c1ccccc1 | > 15000 |
| O=c1[nH]c2cc(Cl)c([N+](=O)[O-])cc2c(O)c1-c1ccc(F)cc1F | 173 |
| O=c1[nH]c2cc(F)c([N+](=O)[O-])cc2c(O)c1-c1ccccc1 | 50 |
| O=c1[nH]c2cc(Cl)c([N+](=O)[O-])cc2c(O)c1-c1nnn[nH]1 | 2600 |
| O=c1[nH]c2cc(Cl)c([N+](=O)[O-])cc2c(O)c1-c1ccc2ccccc2c1 | 6000 |
| Cc1cc(-c2c(O)c3cc([N+](=O)[O-])c(Cl)cc3[nH]c2=O)on1 | 3400 |
| O=c1[nH]c2cc(Cl)c([N+](=O)[O-])cc2c(O)c1-c1cc(Cl)cc(Cl)c1 | 134 |
| O=c1[nH]c2cc(Cl)c([N+](=O)[O-])cc2c(O)c1-c1cc(F)cc(F)c1 | 172 |
| O=c1[nH]c2ccccc2c(O)c1-c1ccccc1 | > 15000 |
| O=c1[nH]c2c([N+](=O)[O-])cccc2c(O)c1-c1ccccc1 | 3000 |
| O=c1cc(O)c2cc([N+](=O)[O-])ccc2[nH]1 | > 15000 |
| O=c1[nH]c2cc(Cl)c([N+](=O)[O-])cc2c(O)c1-c1cccs1 | 700 |
| O=c1[nH]c2cc(Cl)c([N+](=O)[O-])cc2c(O)c1-c1ccc(OCc2ccccc2)cc1 | 86 |
| O=c1[nH]c2cc(Cl)c([N+](=O)[O-])cc2c(O)c1-c1ccc(-c2ccccc2)cc1 | 122 |
| O=c1[nH]c2cc(Cl)c([N+](=O)[O-])cc2c(O)c1-c1ccccc1 | 73 |
| O=c1[nH]c2ccc([N+](=O)[O-])cc2c(O)c1-c1ccccc1 | 550 |
| O=c1[nH]c2cc(Cl)c([N+](=O)[O-])cc2c(O)c1-c1ccc(Cl)cc1Cl | 443 |

From ChEMBL document CHEMBL1149512, “3-Aryl-4-hydroxyquinolin-2(1H)-one derivatives as type I fatty acid synthase inhibitors” (Bioorg Med Chem Lett, 2006)
